Assay results as given in PubChem BioAssay (NCI).
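Test compounds were applied to cells in 96-well plates for 48 hours at 5 doses. At the GI50, growth is halved. TGI marks complete inhibition of growth.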

Legend:
Assay in all cases: NCI tumour cell line growth inhibition, 48 h
A549 NSCLC = test system: A549 NSCLC
A498 renal = test system: A498 renal
HCT-116 colon = test system: HCT-116 colon
SR leukemia = test system: SR leukemia
RPMI-8226 leukemia = test system: RPMI-8226 leukemia
OVCAR-5 ovarian = test system: OVCAR-5 ovarian
TK-10 renal = test system: TK-10 renal
CCRF-CEM leukemia = test system: CCRF-CEM leukemia
RXF 393 renal = test system: RXF 393 renal
HOP-62 NSCLC = test system: HOP-62 NSCLC
SF-295 CNS = test system: SF-295 CNS
HCC-2998 colon = test system: HCC-2998 colon
MDA-MB-435 = test system: MDA-MB-435
EKVX NSCLC = test system: EKVX NSCLC
KM12 colon = test system: KM12 colon
OVCAR-4 ovarian = test system: OVCAR-4 ovarian
IGROV1 ovarian = test system: IGROV1 ovarian
NCI-H226 lung = test system: NCI-H226 lung
SF-268 CNS = test system: SF-268 CNS
786-0 renal = test system: 786-0 renal
HS 578T breast = test system: HS 578T breast
MCF7 breast = test system: MCF7 breast
SK-MEL-28 melanoma = test system: SK-MEL-28 melanoma
UACC-257 melanoma = test system: UACC-257 melanoma
LOX IMVI melanoma = test system: LOX IMVI melanoma
DU-145 prostate = test system: DU-145 prostate
K-562 leukemia = test system: K-562 leukemia
SN12C renal = test system: SN12C renal
UO-31 renal = test system: UO-31 renal
T-47D breast = test system: T-47D breast
MDA-MB-231 breast = test system: MDA-MB-231 breast
HCT-15 colon = test system: HCT-15 colon
OVCAR-8 ovarian = test system: OVCAR-8 ovarian
MALME-3M melanoma = test system: MALME-3M melanoma
OVCAR-3 ovarian = test system: OVCAR-3 ovarian
HT29 colon = test system: HT29 colon
HOP-92 NSCLC = test system: HOP-92 NSCLC
BT-549 breast = test system: BT-549 breast
SNB-75 CNS = test system: SNB-75 CNS
CAKI-1 renal = test system: CAKI-1 renal
SK-OV-3 ovarian = test system: SK-OV-3 ovarian
SNB-19 CNS = test system: SNB-19 CNS
NCI-H522 lung = test system: NCI-H522 lung
COLO 205 colon = test system: COLO 205 colon
SK-MEL-2 melanoma = test system: SK-MEL-2 melanoma
U251 CNS = test system: U251 CNS
SW-620 colon = test system: SW-620 colon
SK-MEL-5 melanoma = test system: SK-MEL-5 melanoma
MOLT-4 leukemia = test system: MOLT-4 leukemia
PC-3 prostate = test system: PC-3 prostate
NCI-H460 lung = test system: NCI-H460 lung
UACC-62 melanoma = test system: UACC-62 melanoma
M14 melanoma = test system: M14 melanoma
NCI/ADR-RES ovarian = test system: NCI/ADR-RES ovarian
NCI-H23 lung = test system: NCI-H23 lung
ACHN renal = test system: ACHN renal
SF-539 CNS = test system: SF-539 CNS

O=C1C(Cl)=C(Nc2cccc(C(F)(F)F)c2)C(=O)N1Cc1ccccc1Cl
GI50 (A549 NSCLC): 7.68 µM | TGI (A549 NSCLC): 27.5 µM | GI50 (A498 renal): 5.06 µM | TGI (A498 renal): 19.7 µM | GI50 (HCT-116 colon): 1.25 µM | TGI (HCT-116 colon): 5.27 µM | GI50 (SR leukemia): 3.72 µM | TGI (SR leukemia): 28 µM | GI50 (RPMI-8226 leukemia): 2.17 µM | TGI (RPMI-8226 leukemia): > 23.5 µM | GI50 (OVCAR-5 ovarian): 18.3 µM | TGI (OVCAR-5 ovarian): 37 µM | GI50 (TK-10 renal): 14 µM | TGI (TK-10 renal): 37.5 µM | GI50 (CCRF-CEM leukemia): 1.23 µM | GI50 (RXF 393 renal): 1.12 µM | TGI (RXF 393 renal): 10.4 µM | GI50 (HOP-62 NSCLC): 12.6 µM | TGI (HOP-62 NSCLC): 25.4 µM | GI50 (SF-295 CNS): 2.39 µM | TGI (SF-295 CNS): 24.9 µM | GI50 (HCC-2998 colon): 12.6 µM | TGI (HCC-2998 colon): 28 µM | GI50 (MDA-MB-435): 2.49 µM | TGI (MDA-MB-435): 12.2 µM | GI50 (EKVX NSCLC): 15.7 µM | TGI (EKVX NSCLC): 37 µM | GI50 (KM12 colon): 12.1 µM | TGI (KM12 colon): 33.5 µM | GI50 (OVCAR-4 ovarian): 6.58 µM | TGI (OVCAR-4 ovarian): 26.5 µM | GI50 (IGROV1 ovarian): 0.186 µM | TGI (IGROV1 ovarian): 11.2 µM | GI50 (NCI-H226 lung): 0.0858 µM | TGI (NCI-H226 lung): 3.01 µM | GI50 (SF-268 CNS): 7.7 µM | TGI (SF-268 CNS): 26.1 µM | GI50 (786-0 renal): 1.78 µM | TGI (786-0 renal): 16.5 µM | GI50 (HS 578T breast): 8.34 µM | TGI (HS 578T breast): 43.5 µM | GI50 (MCF7 breast): 4.21 µM | TGI (MCF7 breast): > 31.8 µM | GI50 (SK-MEL-28 melanoma): 8.21 µM | TGI (SK-MEL-28 melanoma): 26.9 µM | GI50 (UACC-257 melanoma): 13.7 µM | TGI (UACC-257 melanoma): 29.7 µM | GI50 (LOX IMVI melanoma): 1.41 µM | TGI (LOX IMVI melanoma): 3.75 µM | GI50 (DU-145 prostate): 14 µM | TGI (DU-145 prostate): 29.6 µM | GI50 (K-562 leukemia): 4.36 µM | TGI (K-562 leukemia): 26.5 µM | GI50 (SN12C renal): 3.96 µM | TGI (SN12C renal): 16.8 µM | GI50 (UO-31 renal): 5.01 µM | TGI (UO-31 renal): > 43.6 µM | GI50 (T-47D breast): 12.8 µM | TGI (T-47D breast): 40.7 µM | GI50 (MDA-MB-231 breast): 2.67 µM | TGI (MDA-MB-231 breast): 17.4 µM | GI50 (HCT-15 colon): 3.42 µM | TGI (HCT-15 colon): 20.6 µM | GI50 (OVCAR-8 ovarian): 2.71 µM | TGI (OVCAR-8 ovarian): 20.9 µM | GI50 (MALME-3M melanoma): 1.54 µM | TGI (MALME-3M melanoma): 23.3 µM | GI50 (OVCAR-3 ovarian): 4.33 µM | TGI (OVCAR-3 ovarian): 24.8 µM | GI50 (HT29 colon): 4.9 µM | TGI (HT29 colon): 32.9 µM | GI50 (HOP-92 NSCLC): 8.34 µM | TGI (HOP-92 NSCLC): 28.4 µM | GI50 (BT-549 breast): 1.95 µM | TGI (BT-549 breast): 18.1 µM | GI50 (SNB-75 CNS): 0.996 µM | TGI (SNB-75 CNS): 9.55 µM | GI50 (CAKI-1 renal): 4.84 µM | TGI (CAKI-1 renal): 21.6 µM | GI50 (SK-OV-3 ovarian): 20.3 µM | TGI (SK-OV-3 ovarian): 39.8 µM | GI50 (SNB-19 CNS): 13.1 µM | TGI (SNB-19 CNS): 29.4 µM | GI50 (NCI-H522 lung): 0.49 µM | TGI (NCI-H522 lung): 19.8 µM | GI50 (COLO 205 colon): 12 µM | TGI (COLO 205 colon): 35.8 µM | GI50 (SK-MEL-2 melanoma): 4.08 µM | TGI (SK-MEL-2 melanoma): 19.8 µM | GI50 (U251 CNS): 2.1 µM | TGI (U251 CNS): 13.8 µM | GI50 (SW-620 colon): 2.38 µM | TGI (SW-620 colon): 22.2 µM | GI50 (SK-MEL-5 melanoma): 2.79 µM | TGI (SK-MEL-5 melanoma): 14.7 µM | GI50 (MOLT-4 leukemia): 2.56 µM | TGI (MOLT-4 leukemia): 8.53 µM | GI50 (PC-3 prostate): 4.72 µM | TGI (PC-3 prostate): 18.2 µM | GI50 (NCI-H460 lung): 6.19 µM | TGI (NCI-H460 lung): 22.4 µM | GI50 (UACC-62 melanoma): 3.18 µM | TGI (UACC-62 melanoma): 13.7 µM | GI50 (M14 melanoma): 6.21 µM | TGI (M14 melanoma): 19.1 µM | GI50 (NCI/ADR-RES ovarian): 10.1 µM | TGI (NCI/ADR-RES ovarian): 26.8 µM | GI50 (NCI-H23 lung): 5.45 µM | TGI (NCI-H23 lung): 23.2 µM | GI50 (ACHN renal): 4.84 µM | TGI (ACHN renal): 17.1 µM | GI50 (SF-539 CNS): 1.91 µM | TGI (SF-539 CNS): 10.7 µM
